Data: patent publication US20090285893A1, “TREATMENT OF HEART FAILURE IN WOMEN” (The Procter & Gamble Company, priority 2008, published 2009)

Columns and labels:
Format in all cases: in vivo, human
[1] = test system: post-menopausal women with heart failure; assay: maximal oxygen consumption (MVO2) by ergospirometry
Method: Thirty-two (32) patients enrolled in the trial.
The following follow-ups were conducted: six weeks (B); twelve weeks (B+C); 18 weeks (B); and 24 weeks (B+C).
Maximal oxygen consumption (“MVO2;” also “VO2 max”) is the maximum volume of oxygen that the body can consume during intense, whole-body exercise, while breathing air at sea level. This volume is expressed as a rate, which is in ml/kg/min. As oxygen consumption is linearly related to energy expenditure, the measurement of oxygen consumption is an indirect measurement of an individual's maximal capacity to do work aerobically.

[2] = test system: post-menopausal women with heart failure; assay: drop-outs and adverse events during the clinical study; conditions: testosterone group of 20 patients
Method: (§1) Thirty-two (32) patients enrolled in the trial. […] Testosterone was administered to the patients as Intrinsa, which is available in Europe.
During the clinical study, two patients dropped out of the testosterone group, and one patient dropped out of the placebo group. […] The patient who dropped out of the placebo group was a no-show at the 6-week meeting and was reported to have stopped the treatment. Of the testosterone group, six patients referred mild skin irritation at the patch site and continued therapy. Of the placebo group, two patients referred mild skin irritation at the patch site and continued therapy. […] These two patients continued the testosterone treatment. Two patients in the placebo group had worsening heart failure that required hospital admission (one patient had one episode of worsening heart failure; the other patient had two episodes of worsening heart failure). These two patients continued with the patch.

[3] = test system: post-menopausal women with heart failure; assay: six minute walking test (6MWT), exercise tolerance; conditions: for 6MWT distance walked: 300 mcg/day transdermal patch
Method: as §1
(§2) The clinical trial design involved: (A) evaluation of inclusion/exclusion criteria and study agreement; (B) visit (blood pressure, heart rate and NYHA classification); (C) six minute walking test, endothelial function, ergospirometry (when possible), muscle strength (isometric and isokinetic) and blood samples; and then (D) randomization to testosterone or placebo. The following follow-ups were conducted: six weeks (B); twelve weeks (B+C); 18 weeks (B); and 24 weeks (B+C).
In the 6MWT, each patient started by standing at a known beginning location point. Each patient then walked as much as possible within a 6-minute timeframe. At the end of the 6-minute timeframe, the ending location of each patient was identified. The distance each patient walked was calculated by measuring (in meters) the distance between the beginning and end points for each patient.

[4] = test system: post-menopausal women with heart failure; assay: high-density lipoprotein (HDL) measurement
Method: as §1, §2
High-density lipoprotein (“HDL”) was measured.

[5] = test system: post-menopausal women with heart failure; assay: muscle isokinetic strength, peak torque
Method: as §1, §2
Isokinetic strength was assessed by evaluating the highest peak torque achieved in a five maximal repetition test of concentric knee extension/flexion performed at 90 degree/sec. The range of motion was 50°. Results are reported at Tables 11-12 and FIGS. 11-13.

[6] = test system: post-menopausal women with heart failure; assay: NYHA classification improvement
Method: as §1, §2
NYHA Classification was determined for each individual at three months and at six months of treatment.

[7] = test system: post-menopausal women with heart failure; assay: muscle isometric strength, maximal voluntary contraction (MVC)
Method: as §1, §2
Isometric strength was the highest force developed by patients in three, 5-second maximal voluntary contractions (“MVC”) separated by 1 minute of rest. The knee angle was fixed at 80° (full extension considered 0°). Results are reported at Tables 9-10 and FIGS. 8-10.

C[C@]12CC[C@H]3[C@@H](CCC4=CC(=O)CC[C@@]43C)[C@@H]1CC[C@@H]2O [Testosterone, testosterone]
MVO2 percent change from baseline ([1]; 3 months): 21% change
MVO2 percent change from baseline ([1]; 6 months): 28% change
MVO2 percent change from baseline ([1]; 6 months, listed as testosterone): over 25 % change
maximal oxygen consumption peak (MVO2) ([1]; baseline, testosterone group): 10.54 mL/min/kg
patients who dropped out [2]: two
patients with generalized prurigo (without lesions on the skin), discontinued treatment after 3 weeks [2]: one
patients with mild skin irritation at the patch site, continued therapy [2]: six
patients with one episode of worsening of heart failure requiring hospital admission ([2]; during the follow-up): Two
6MWT percent change from baseline ([3]; 3 months): 35.7% change
6MWT change in distance walked ([3]; 3 months vs baseline): 93 Δ m
6MWT distance walked ([3]; 3 months): 353 m
6MWT percent change from baseline ([3]; 6 months): 39.2% change
6MWT change in distance walked ([3]; 6 months vs baseline): 102 Δ m
6MWT distance walked ([3]; 6 months): 362 m
6MWT distance walked ([3]; baseline, testosterone group): 260 m
HDL Percent Changes ([4]; 3 months): 19%
HDL level ([4]; 3 months): 43.24 mg/dL
HDL Percent Changes ([4]; 6 months): 25%
HDL level ([4]; 6 months): 43.15 mg/dL
HDL level ([4]; baseline, testosterone group): 36.9 mg/dL
isokinetic strength, peak torque ([5]; 3 months): 58.85 N/m
peak torque percent change from baseline ([5]; 3 months): 42.32% change
isokinetic strength, peak torque ([5]; 6 months): 63.82 N/m
peak torque percent change from baseline ([5]; 6 months): 54.34% change
isokinetic strength, peak torque ([5]; baseline, testosterone group): 41.35 N/m
Percent of patients with improvement of NYHA Class and/or improvement of >15% 6 MWT (% Response) ([6]; 6 months): 80%
Percent change in NYHA Class of patients: NYHA 0 ([6]; during 6 months of treatment): 50%
Percent change in NYHA Class of patients: NYHA + 1 ([6]; during 6 months of treatment): 11%
Percent change in NYHA Class of patients: NYHA − 1 ([6]; during 6 months of treatment): 38.8%
MVC percent change from baseline ([7]; 3 months): 37.8% change
isometric strength, maximal voluntary contraction (MVC) ([7]; 3 months): 89.4 N
MVC percent change from baseline ([7]; 6 months): 47.6% change
isometric strength, maximal voluntary contraction (MVC) ([7]; 6 months): 95.7 N
isometric strength, maximal voluntary contraction (MVC) ([7]; baseline, testosterone group): 64.85 N
